Test results from ChEMBL document CHEMBL1148679, “A novel iNOS and COX-2 inhibitor from the aerial parts of Rodgersia podophylla” (2006).

How the values were obtained:
Details in all cases: Mus musculus
RAW264.7 [1] = assay: Inhibition of iNOS expression in LPS-activated Raw 264.7 cells at 2 uM; assay type: functional
RAW264.7 [2] = assay: Decrease in COX2 level in LPS-activated Raw 264.7 cells; assay type: functional, cell-based
RAW264.7 [3] = assay: Inhibition of COX2 expression in LPS-activated Raw 264.7 cells at 3 uM; assay type: functional
RAW264.7 [4] = assay: Decrease in iNOS level in LPS-activated Raw 264.7 cells; assay type: functional, cell-based

C/C=C/c1ccc(Oc2ccc(O)cc2)c(C(C)CO)c1 (centres undefined) [RODGERSINOL]
inhibition at 2 µM (RAW264.7 [1]): 50% | Activity (RAW264.7 [2]): Dose-dependent effect | inhibition at 3 µM (RAW264.7 [3]): 50% | Activity (RAW264.7 [4]): Dose-dependent effect
